The results in this text go back to ChEMBL document CHEMBL3124787, “Discovery of novel bis-oxazolidinone compounds as potential potent and selective antitubercular agents” (Bioorg Med Chem Lett, 2014).

Usually MIC stands for the smallest concentration in the dilution series that meets the test's criterion for growth inhibition.

Holding throughout (format): functional
Assay [1] deals with Mycobacterium tuberculosis. The assay is described as follows: Antitubercular activity against extensive drug-resistant Mycobacterium tuberculosis clinical isolate 7 assessed as growth inhibition by microdilution method. (Dilution methods test growth across graded concentrations, often in twofold steps.)
The subject of assay [2] is Mycobacterium tuberculosis. Description: Antitubercular activity against extensive drug-resistant Mycobacterium tuberculosis clinical isolate 6 assessed as growth inhibition by microdilution method.
The test system of assay [3] is Mycobacterium tuberculosis. Description: Antitubercular activity against extensive drug-resistant Mycobacterium tuberculosis clinical isolate 5 assessed as growth inhibition by microdilution method.
Assay [4] relates to Mycobacterium tuberculosis. The assay is described as follows: Antitubercular activity against extensive drug-resistant Mycobacterium tuberculosis clinical isolate 4 assessed as growth inhibition by microdilution method.
Assay [5] deals with Mycobacterium tuberculosis. The assay is described as follows: Antitubercular activity against multidrug-resistant Mycobacterium tuberculosis clinical isolate 3 assessed as growth inhibition by microdilution method.
Assay [6] concerns Mycobacterium tuberculosis. Description: Antitubercular activity against multidrug-resistant Mycobacterium tuberculosis clinical isolate 2 assessed as growth inhibition by microdilution method.
The test system of assay [7] is Mycobacterium tuberculosis. Description: Antitubercular activity against isoniazid-resistant Mycobacterium tuberculosis H37RV clinical isolate 1 assessed as growth inhibition by microdilution method. To be noted: H37Rv isolate 1.
Assay [8] relates to Mycobacterium tuberculosis. Description: Ratio of MIC for compound to linezolid for extensive drug-resistant Mycobacterium tuberculosis.
In assay [9] the test system is Mycobacterium tuberculosis. Description: Ratio of MIC for compound to linezolid for multidrug-resistant Mycobacterium tuberculosis.

In the case of `NNC(=O)c1ccncc1` [ISONIAZID], the MIC is 8 µg/mL in assay [1]; 4 µg/mL in assay [2]; 4 µg/mL in assay [3]; 2 µg/mL in assay [4]; 2 µg/mL in [5]; 8 µg/mL in assay [6]. Further, the MIC in assay [7] is 2 µg/mL.
Consider `COc1ccc(N2C[C@@H](COc3ccc(N4C[C@H](CNC(C)=O)OC4=O)cc3F)OC2=O)cc1`, for which the Ratio in assay [8] and in assay [9] was above 20 each time. The minimum inhibitory concentration (MIC) was determined as 8 µg/mL in assay [1]; 2 µg/mL in [2]; 4 µg/mL in assay [3]; 4 µg/mL in assay [4]; 4 µg/mL in assay [5]; 4 µg/mL in assay [6]. Moreover, the MIC in assay [7] turned out to be 4 µg/mL.
Regarding `CC(=O)NC[C@H]1CN(c2ccc(OC[C@@H]3CN(c4ccccc4)C(=O)O3)c(F)c2)C(=O)O1`, the Ratio in [8] and in assay [9] was above 20 in each case. Besides, the MIC worked out at 8 µg/mL in [1]; 2 µg/mL in assay [2]; 4 µg/mL in assay [3]; 4 µg/mL in assay [4]; 4 µg/mL in assay [5]; 4 µg/mL in [6]. For the same molecule, the MIC in assay [7] was 8 µg/mL.
Turning to `CC(=O)NC[C@H]1CN(c2ccc(N3CCOCC3)c(F)c2)C(=O)O1` [LINEZOLID], the MIC in [1] turned out to be 0.25 µg/mL; in [2], 0.25 µg/mL; in assay [3] it was 0.25 µg/mL; in assay [4], 1 µg/mL; in assay [5], 0.25 µg/mL; in [7], 0.25 µg/mL.
